Assay results published in ChEMBL document CHEMBL1201862, “PubChem BioAssay data set” (2004).
Active and inactive are the calls of the source.

What was measured:
[1] = target: T1, Leucine aminopeptidase (Plasmodium falciparum 3D7, UniProt Q8IL11); assay: P. falciparum M17LAP inhibitors, primary screen, biochemical, fluorogenic H-Leu-NHMec substrate, 1536-well (AID 1619); assay type: functional
T1 sequence (Q8IL11 whole entry): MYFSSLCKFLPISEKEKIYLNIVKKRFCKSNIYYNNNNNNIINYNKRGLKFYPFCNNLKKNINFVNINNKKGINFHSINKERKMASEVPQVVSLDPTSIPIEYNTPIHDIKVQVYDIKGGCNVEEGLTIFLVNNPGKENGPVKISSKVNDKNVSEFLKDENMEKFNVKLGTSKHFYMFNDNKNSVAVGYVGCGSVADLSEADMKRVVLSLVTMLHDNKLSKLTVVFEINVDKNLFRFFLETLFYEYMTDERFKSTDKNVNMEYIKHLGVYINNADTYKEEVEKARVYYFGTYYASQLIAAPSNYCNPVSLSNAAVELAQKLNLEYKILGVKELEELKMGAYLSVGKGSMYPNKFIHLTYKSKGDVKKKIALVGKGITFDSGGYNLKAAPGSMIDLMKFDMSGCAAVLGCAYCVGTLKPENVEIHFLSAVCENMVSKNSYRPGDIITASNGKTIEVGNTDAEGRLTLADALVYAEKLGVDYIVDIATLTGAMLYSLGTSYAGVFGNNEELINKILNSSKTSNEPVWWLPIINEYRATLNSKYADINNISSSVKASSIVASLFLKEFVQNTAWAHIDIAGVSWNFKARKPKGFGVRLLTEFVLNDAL

[2] = target: Prothrombin (Homo sapiens, UniProt P00734); assay: Thrombin 1536 HTS Dose Response Confirmation. [Related pubchem assays: 1046 (Thrombin 1536 HTS; hits were confirmed in this assay)]; assay type: functional
[3] = Luminescence Cell-Based Dose Confirmation HTS to Identify Activators of 5'UTR Stem-Loop Driven Alpha-Synuclein mRNA Translation in H4 Neuroglioblastoma Cells. [Related pubchem assays: 1829 (Project Summary), 1814 (Primary HTS)]; assay type: functional
[4] = system: H4; assay: Luminescence Cell-Based Dose Response HTS to Identify Activators of 5'UTR Stem-Loop Driven Prion Protein mRNA Translation in H4 Neuroglioblastoma Cells. [Related pubchem assays: 1829 (Project Summary), 1814 (Primary HTS)]; assay type: functional; settings: Homo sapiens
[5] = Luminescence Cell-Based Dose Response HTS to Identify Activators of Luciferase Translation or Activity in H4 […] Cells. [Related pubchem assays: 1829 (Project Summary), 1814 (Primary HTS)]; assay type: functional
[6] = target: T2, Protein RecA (Mycobacterium tuberculosis, UniProt P9WHJ3); assay: Fluorescence Cell-Free Homogeneous Dose Retest to Identify Inhibitors of RecA-Intein Splicing Activity. [Related pubchem assays (depositor defined):AID2097, AID2223, AID489010, AID492950]; assay type: functional
T2 sequence (P9WHJ3 whole entry): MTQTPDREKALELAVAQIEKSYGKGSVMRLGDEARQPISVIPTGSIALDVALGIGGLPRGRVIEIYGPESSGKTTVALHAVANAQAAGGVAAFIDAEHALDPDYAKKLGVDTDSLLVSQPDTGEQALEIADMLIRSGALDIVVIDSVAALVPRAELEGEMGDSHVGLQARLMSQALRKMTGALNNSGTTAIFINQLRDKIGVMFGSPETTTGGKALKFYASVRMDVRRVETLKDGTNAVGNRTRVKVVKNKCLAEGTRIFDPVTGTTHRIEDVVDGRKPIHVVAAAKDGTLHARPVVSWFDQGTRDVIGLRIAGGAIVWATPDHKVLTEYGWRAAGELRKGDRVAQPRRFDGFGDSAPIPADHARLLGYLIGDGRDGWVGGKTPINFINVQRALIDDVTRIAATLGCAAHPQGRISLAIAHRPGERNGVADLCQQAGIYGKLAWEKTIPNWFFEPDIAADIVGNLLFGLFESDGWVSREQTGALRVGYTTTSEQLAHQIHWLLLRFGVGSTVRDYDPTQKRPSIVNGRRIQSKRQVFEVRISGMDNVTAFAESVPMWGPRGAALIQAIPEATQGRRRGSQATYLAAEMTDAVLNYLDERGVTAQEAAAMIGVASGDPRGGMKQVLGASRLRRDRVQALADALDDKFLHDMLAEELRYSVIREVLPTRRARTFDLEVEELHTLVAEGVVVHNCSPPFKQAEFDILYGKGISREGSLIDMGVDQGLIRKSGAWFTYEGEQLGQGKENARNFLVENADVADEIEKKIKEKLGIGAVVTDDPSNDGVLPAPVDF

[7] = target: T3, Replicative DNA helicase DnaB (Mycobacterium tuberculosis, UniProt P9WMR3); assay: DnaB intein splicing inhibitors, dose response, biochemical, cell-free fluorescence (AID 449749); assay type: functional
T3 sequence (P9WMR3 whole entry): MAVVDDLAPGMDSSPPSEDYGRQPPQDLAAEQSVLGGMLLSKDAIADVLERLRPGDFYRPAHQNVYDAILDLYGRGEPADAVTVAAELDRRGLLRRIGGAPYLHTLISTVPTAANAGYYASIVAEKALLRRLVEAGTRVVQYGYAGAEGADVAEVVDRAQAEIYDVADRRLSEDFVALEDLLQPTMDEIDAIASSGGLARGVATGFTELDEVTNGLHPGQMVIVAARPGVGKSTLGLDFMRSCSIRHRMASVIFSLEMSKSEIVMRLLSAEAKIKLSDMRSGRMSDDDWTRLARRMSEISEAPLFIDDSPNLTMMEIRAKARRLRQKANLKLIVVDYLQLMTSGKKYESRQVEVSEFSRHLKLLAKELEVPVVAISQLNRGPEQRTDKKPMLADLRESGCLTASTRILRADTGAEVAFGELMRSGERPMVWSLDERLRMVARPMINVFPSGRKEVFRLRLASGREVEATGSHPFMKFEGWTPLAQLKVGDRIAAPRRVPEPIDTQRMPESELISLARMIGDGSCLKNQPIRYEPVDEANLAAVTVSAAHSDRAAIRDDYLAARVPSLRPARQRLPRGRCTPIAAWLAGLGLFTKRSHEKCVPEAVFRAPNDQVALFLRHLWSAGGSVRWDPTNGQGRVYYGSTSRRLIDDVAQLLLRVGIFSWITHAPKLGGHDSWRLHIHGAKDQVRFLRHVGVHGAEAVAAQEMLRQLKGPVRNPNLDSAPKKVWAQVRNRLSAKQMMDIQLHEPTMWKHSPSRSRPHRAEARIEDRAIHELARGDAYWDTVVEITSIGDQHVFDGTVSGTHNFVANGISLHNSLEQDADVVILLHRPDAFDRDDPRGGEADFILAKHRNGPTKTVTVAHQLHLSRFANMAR

[8] = target: T4, Aminopeptidase N (Plasmodium falciparum FcB1/Columbia, UniProt O96935); assay: P. falciparum M1AAP inhibitors, biochemical, fluorogenic H-Leu-NHMec substrate, 1536-well (AID 1445); design: species or system Plasmodium falciparum 3D7, 3D7
T4 sequence (O96935 whole entry): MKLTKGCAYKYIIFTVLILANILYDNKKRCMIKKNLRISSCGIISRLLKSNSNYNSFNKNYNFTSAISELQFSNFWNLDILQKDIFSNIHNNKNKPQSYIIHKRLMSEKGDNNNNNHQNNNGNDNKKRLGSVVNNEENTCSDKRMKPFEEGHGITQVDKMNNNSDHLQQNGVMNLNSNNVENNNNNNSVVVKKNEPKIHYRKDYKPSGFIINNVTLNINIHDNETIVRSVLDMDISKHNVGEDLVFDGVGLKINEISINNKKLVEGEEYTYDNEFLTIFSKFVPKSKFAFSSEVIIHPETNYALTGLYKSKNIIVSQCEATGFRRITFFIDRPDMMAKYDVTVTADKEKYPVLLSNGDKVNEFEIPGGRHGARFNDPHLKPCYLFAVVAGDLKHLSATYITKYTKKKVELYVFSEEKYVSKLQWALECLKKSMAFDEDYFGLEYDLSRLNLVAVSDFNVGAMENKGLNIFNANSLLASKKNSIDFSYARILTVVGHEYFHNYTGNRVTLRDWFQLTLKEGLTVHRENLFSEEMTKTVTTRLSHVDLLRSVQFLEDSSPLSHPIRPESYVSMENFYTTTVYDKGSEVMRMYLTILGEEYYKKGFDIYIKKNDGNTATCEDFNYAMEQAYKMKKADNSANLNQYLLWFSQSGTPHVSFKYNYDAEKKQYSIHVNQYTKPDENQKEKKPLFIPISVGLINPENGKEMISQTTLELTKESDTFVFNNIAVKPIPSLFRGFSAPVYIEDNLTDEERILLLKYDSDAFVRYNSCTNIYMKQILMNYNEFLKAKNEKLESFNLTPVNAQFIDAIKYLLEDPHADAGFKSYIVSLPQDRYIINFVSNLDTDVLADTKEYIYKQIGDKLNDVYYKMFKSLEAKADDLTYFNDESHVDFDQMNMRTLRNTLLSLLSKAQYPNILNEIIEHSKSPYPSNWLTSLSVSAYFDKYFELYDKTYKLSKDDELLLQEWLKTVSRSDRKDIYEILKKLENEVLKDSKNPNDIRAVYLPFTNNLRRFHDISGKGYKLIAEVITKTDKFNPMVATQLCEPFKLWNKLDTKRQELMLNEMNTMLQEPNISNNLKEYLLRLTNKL

[9] = Luminescence Cell-Based Dose Response HTS to Identify Inhibitors of 5'UTR Stem-Loop Driven Prion Protein mRNA Translation in H4 Neuroglioblastoma Cells. [Related pubchem assays: 1827 (Project Summary), 1813 (Primary HTS)]; assay type: functional
[10] = system: Streptococcus sp. 'group A'; assay: growth inhibition of control SK(-) GAS strain, dose response, counter-screen for streptokinase expression inhibitor project, luminescence, kanamycin, BacTiterGlo, confirmation (AID 1900); assay type: functional, organism-based
[11] = inhibitors of firefly luciferase expression or activity, dose response, H4 neuroglioma cells, luminescence (AID 1990); assay type: functional, cell-based
[12] = growth suppression of beta-catenin-knockout colon cells, dose response, cell-based, HCT116, human colon tumor (AID 1045); assay type: functional;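 also: HCT116 colon tumor cells with beta catenin knocked out; cells exposed to compound for 60 hours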
[13] = inhibitors of SNCA 5'UTR-driven reporter translation, confirmation, H4 neuroglioma cells, luminescence (AID 1988); assay type: functional, cell-based
[14] = system: Streptococcus; assay: Group A Streptococcus viability loss, dose response, counter-screen for streptokinase expression inhibitor project, luminescence, BacTiterGlo (AID 1915); assay type: functional, organism-based;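 also: potency for reduction of bacterial viability or growth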
[15] = system: INS1; assay: beta cell apoptosis inhibitors, cytokine rescue, dose response, luminescence, retest (AID 449756); assay type: functional, cell-based; settings: Rattus norvegicus;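 also: cell death triggered by IL-1 beta plus TNF-alpha plus IFN-gamma mixture; protective hits raise ATP signal compared with cytokine alone wells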
[16] = growth suppression of PTEN-null colon cells, dose response, cell-based, HCT116 PTEN knockout (AID 1047); assay type: functional;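 also: HCT116 colon tumor cells with PTEN knocked out; cells exposed to compound for 60 hours before readout; potency for loss of cell viability measured by luminescence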
[17] = target: Induced myeloid leukemia cell differentiation protein Mcl-1 (Homo sapiens, UniProt Q07820); assay type: functional
[18] = control 3'UTR Renilla luciferase suppression, dose response, counter-screen for Shn3 inhibitor project, cell-based, Clone20-Shn3RL, cherry-picked (AID 624133); assay type: functional
[19] = target: Paired box protein Pax-8 (Homo sapiens, UniProt Q06710); assay: inhibitors of PAX8-driven TPO luciferase reporter, dose response, RMG-I cells, cherry-pick (AID 687027); assay type: functional, cell-based;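 also: luciferase reporter driven by Pax8 target thyroperoxidase promoter measured by SteadyGlo luminescence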
[20] = HepG2 cell cytotoxicity, dose response, cytotoxicity control for Shn3 inhibitor project, CellTiter-Glo, cherry-picked (AID 624134); assay type: functional, cell-based
[21] = Shn3 3'UTR reporter inhibitors, dose response, cell-based, Clone20 osteoblasts, firefly luciferase, cherry-picked (AID 624132); assay type: functional;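 also: firefly luciferase luminescence from reporter carrying the Shn3 3'UTR in osteoblasts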
[22] = target: T5, Streptokinase A (Streptococcus pyogenes serotype M1, UniProt P10520); assay: S. pyogenes streptokinase expression inhibitors, potency, dose response, plasminogen activation absorbance, OD405 (AID 1914); assay type: functional, Streptococcus pyogenes M1 GAS;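 also: secreted streptokinase activity via plasminogen activation per viability signal from cell pellet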
T5 sequence (P10520 whole entry): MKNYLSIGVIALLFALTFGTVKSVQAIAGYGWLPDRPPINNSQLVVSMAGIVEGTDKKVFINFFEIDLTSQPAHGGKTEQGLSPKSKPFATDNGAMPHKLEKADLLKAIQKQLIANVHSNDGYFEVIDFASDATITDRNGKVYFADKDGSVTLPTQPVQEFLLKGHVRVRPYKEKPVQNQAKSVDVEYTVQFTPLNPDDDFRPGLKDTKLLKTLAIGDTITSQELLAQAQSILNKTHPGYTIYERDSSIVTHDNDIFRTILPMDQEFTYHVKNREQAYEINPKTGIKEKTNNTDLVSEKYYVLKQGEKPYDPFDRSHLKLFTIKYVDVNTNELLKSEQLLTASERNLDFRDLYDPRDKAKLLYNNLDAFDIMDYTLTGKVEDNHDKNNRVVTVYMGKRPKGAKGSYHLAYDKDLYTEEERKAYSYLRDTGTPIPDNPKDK

[23] = microbe, parasite or virus in culture; assay type: functional; settings: Mycobacterium tuberculosis

Chain of Induced myeloid leukemia cell differentiation protein Mcl-1 (Q07820 whole entry): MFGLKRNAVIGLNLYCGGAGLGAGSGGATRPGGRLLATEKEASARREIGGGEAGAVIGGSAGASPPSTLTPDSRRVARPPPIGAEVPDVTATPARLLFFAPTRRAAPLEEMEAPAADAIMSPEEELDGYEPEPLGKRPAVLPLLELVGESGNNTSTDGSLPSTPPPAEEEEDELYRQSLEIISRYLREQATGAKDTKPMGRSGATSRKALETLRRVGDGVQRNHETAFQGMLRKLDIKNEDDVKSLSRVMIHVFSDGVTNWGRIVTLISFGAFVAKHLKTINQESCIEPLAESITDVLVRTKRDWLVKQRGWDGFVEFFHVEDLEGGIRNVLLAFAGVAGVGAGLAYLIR
Chain of Paired box protein Pax-8 (Q06710 whole entry): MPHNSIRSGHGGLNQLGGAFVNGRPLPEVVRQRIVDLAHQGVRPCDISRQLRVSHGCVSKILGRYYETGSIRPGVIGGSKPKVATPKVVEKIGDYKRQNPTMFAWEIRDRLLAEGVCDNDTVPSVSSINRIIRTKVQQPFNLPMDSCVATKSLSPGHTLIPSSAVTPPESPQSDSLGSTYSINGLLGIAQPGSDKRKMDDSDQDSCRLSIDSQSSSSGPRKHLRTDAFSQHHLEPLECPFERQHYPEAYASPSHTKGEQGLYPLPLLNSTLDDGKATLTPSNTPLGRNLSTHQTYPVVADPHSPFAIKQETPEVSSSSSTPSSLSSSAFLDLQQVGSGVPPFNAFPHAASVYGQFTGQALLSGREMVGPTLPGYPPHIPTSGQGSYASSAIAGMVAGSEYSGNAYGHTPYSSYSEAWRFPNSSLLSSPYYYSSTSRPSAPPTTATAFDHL

## CC1=C(C)C(=O)C(CCCCC#CCCCC#CCO)=C(C)C1=O [DOCEBENONE]
[1]
  IC50: 53.4 µM (active)

## O=C(c1ccco1)n1nc(-c2ccccc2)nc1SCc1ccccc1
[2]
  IC50: 0.695 µM (active)
[3]
  EC50: > 120 µM (not active)
[4]
  EC50: 19.6 µM (active)
[5]
  EC50: 40.1 µM (active)

## CCCCc1ccc(NC(=O)CSCc2cc(=O)[nH][nH]2)cc1
[1]
  IC50: 12.4 µM (active)
[6]
  EC50: 1.82 µM (active)
[7]
  AC50: 3.57 µM (active)

## Cc1ccc(NC(=O)CSCc2nc(O)c3nnn(Cc4ccc(F)cc4)c3n2)c(C)c1
[1]
  IC50: 2.06 µM (active)

## COC(=O)c1ccc(Cl)c(NS(=O)(=O)c2ccc3c(c2)OCCO3)c1
[8]
  IC50: 29.7 µM (active)

## O=C(Nc1ccc([N+](=O)[O-])cc1)Nc1nc(-c2ccc(Cl)s2)cs1
[9]
  EC50: 8.31 µM (active)
[10]
  EC50: 6.16 µM (active)
[11]
  EC50: 8.65 µM (active)
[12]
  EC50: 0.991 µM (active)
[13]
  EC50: 8.39 µM (active)
[14]
  EC50: 81.8 µM (active)
[15]
  AC50: 1.54 µM (active)
[16]
  EC50: 0.8 µM (active)
[17]
  IC50: 5.32 µM (active)
[18]
  AC50: 3.04 µM (active)
[19]
  AC50: 2.42 µM (active)
[20]
  AC50: 4.82 µM (active)
[21]
  AC50: 3.19 µM (active)
[22]
  EC50: 44.8 µM (inconclusive)

## Nc1c(C(=O)O)cnc2c(-c3ccc(Cl)cc3)cnn12
[8]
  IC50: 42.4 µM (active)
[23]
  CC50: 24.6 µM (active)

## COc1ccc(CCNC(=O)COC(=O)Cc2cccc3ccccc23)cc1
[17]
  IC50: 26.3 µM (not active)

## CCN(CC)S(=O)(=O)N1CCC(C(=O)NCC2COc3ccccc3O2)CC1 (stereo not drawn)
[1]
  IC50: 11.3 µM (active)
